Assay results from patent US20250101023A1, “HETEROARYL DERIVATIVE AND USES THEREOF” (IUCF-HYU (INDUSTRY-UNIVERSITY COOPERATION FOUNDATION …, priority 2022, published 2025).
Like-named read-outs stand apart in the source and are kept apart here.

How the values were obtained:
CYP2C19 = CYP2C19 (Homo sapiens (Human), UniProt P33261); test: CYP inhibitory activity; type: in vitro ADME; details: read-out: CYP % activity at 10 μM concentration 2C19
Procedure: (§1) 5 derivatives were evaluated for in vitro metabolic stability in liver microsomes from three different species (human, dog, mouse) and for inhibitory activity against 5 representative cytochrome P450 enzymes (CYPs)(Table 3). In terms of liver microsomal stability, the 2′-pyridyl group is more suitable than the α-methyl-4′-pyridyl group as the terminal aromatic group at position 6, and the aminopyrimidyl group is better than the aminopyridyl group as a substituent at position 2.

CYP2D6 = CYP2D6 (Homo sapiens (Human), UniProt P10635); test: CYP inhibitory activity; type: in vitro ADME; details: read-out: CYP % activity at 10 μM concentration 2D6
Procedure: as §1

CYP3A4 = CYP3A4 (Homo sapiens (Human), UniProt P08684); test: CYP inhibitory activity; type: in vitro ADME; details: read-out: CYP % activity at 10 μM concentration 3A4
Procedure: as §1

CYP2C9 = CYP2C9 (Homo sapiens (Human), UniProt P11712); test: CYP inhibitory activity; type: in vitro ADME; details: read-out: CYP % activity at 10 μM concentration 2C9
Procedure: as §1

CDK12/CyclinK = CDK12/CyclinK (Homo sapiens (Human), UniProt Q9NYV4); test: CDK12/cyclinK enzyme activity; type: biochemical; details: in vitro
CYP1A2 = CYP1A2 (Homo sapiens (Human), UniProt P05177); test: in vitro; type: in vitro ADME
Procedure: as §1

[1] = Liver microsomal metabolic stability; type: in vitro ADME; details: for Liver microsomal metabolic stability (% remaining amount) Dog: dog liver microsomes; for Liver microsomal metabolic stability (% remaining amount) Human: human liver microsomes; for Liver microsomal metabolic stability (% remaining amount) Mouse: mouse liver microsomes
Procedure: as §1

cyclinK = test: Western blot, cyclinK degradation; type: cell-based; details: SK-Br3 cell line, 0.2 and 1 μM, 2 hours
[2] = test system: Pol II CTD (Ser2) phosphorylation; test: Western blot, Pol II CTD Ser2 phosphorylation; type: cell-based; details: SK-Br3 cell line, 0.2 and 1 μM, 2 hours
SK-Br3 cells = test: Breast cancer growth inhibitory activity (Cell-titer Glo, 72 h); type: cell-based; details: Homo sapiens, SK-BR-3
Procedure: (§2) Breast cancer cells in a culture solution (100 μL volume/well, 2,500 SK-Br3 cells/well, 1,000 HCC-1954 cells/well) were seeded into a tissue culture-treated 96-well plate and cultured in a cell incubator for 24 hours. […] Cell-titer Glo™ reagent (50 μL of a 5-fold diluted solution, Promega) was added to each well, and luminescence signals were measured using an Envision™ plate reader (PerkinElmer, USA). Titration curve fitting and IC50 values were generated using Prism 7.0 s/w (GraphPad, San Diego, USA).

HCC1954 cells = test: as above; type: cell-based; details: Homo sapiens
Procedure: as §2

[3] = 72 hours, read-out: SK-Br3 (GI50/μM)
[4] = 72 hours, read-out: HCC1954 (GI50/μM)

Chain of CDK12/CyclinK (Q9NYV4 whole entry): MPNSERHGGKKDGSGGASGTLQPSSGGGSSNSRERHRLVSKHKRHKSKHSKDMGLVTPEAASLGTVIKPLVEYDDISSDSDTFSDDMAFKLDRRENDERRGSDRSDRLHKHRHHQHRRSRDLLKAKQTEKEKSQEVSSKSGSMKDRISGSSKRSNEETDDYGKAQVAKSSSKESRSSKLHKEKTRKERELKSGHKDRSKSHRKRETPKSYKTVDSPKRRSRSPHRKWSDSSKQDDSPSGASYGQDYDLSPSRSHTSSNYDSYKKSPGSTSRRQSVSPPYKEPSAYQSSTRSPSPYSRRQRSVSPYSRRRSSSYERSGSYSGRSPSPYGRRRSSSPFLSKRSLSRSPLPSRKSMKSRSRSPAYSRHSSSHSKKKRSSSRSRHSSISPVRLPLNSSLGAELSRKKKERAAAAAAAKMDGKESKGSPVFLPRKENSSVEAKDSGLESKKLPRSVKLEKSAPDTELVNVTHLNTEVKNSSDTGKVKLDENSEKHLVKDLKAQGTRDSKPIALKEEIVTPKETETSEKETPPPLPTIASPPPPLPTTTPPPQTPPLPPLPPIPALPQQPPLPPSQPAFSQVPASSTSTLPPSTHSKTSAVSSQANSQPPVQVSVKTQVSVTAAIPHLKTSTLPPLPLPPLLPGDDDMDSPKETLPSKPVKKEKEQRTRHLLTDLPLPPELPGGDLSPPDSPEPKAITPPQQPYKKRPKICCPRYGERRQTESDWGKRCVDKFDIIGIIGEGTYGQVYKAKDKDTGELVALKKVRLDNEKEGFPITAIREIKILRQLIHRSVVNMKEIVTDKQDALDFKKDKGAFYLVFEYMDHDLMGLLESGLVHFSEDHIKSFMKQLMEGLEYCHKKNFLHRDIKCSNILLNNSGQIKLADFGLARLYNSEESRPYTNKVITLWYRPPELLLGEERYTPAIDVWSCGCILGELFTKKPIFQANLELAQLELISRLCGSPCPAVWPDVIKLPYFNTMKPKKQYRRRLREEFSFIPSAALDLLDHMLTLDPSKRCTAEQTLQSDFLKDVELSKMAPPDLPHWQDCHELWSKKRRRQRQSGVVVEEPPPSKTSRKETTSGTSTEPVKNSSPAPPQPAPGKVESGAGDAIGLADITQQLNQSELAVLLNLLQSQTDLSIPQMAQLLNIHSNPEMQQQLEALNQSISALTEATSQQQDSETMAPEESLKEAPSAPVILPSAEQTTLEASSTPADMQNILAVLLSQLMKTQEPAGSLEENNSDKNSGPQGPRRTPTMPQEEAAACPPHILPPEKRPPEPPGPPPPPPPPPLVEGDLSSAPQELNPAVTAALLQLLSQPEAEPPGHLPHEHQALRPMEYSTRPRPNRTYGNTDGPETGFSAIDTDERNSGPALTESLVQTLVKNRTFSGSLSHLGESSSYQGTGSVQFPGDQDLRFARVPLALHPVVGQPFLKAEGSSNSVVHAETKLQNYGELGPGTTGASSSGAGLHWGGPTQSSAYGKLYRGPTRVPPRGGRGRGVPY
Chain of CDK12/CyclinK (O75909 whole entry partner): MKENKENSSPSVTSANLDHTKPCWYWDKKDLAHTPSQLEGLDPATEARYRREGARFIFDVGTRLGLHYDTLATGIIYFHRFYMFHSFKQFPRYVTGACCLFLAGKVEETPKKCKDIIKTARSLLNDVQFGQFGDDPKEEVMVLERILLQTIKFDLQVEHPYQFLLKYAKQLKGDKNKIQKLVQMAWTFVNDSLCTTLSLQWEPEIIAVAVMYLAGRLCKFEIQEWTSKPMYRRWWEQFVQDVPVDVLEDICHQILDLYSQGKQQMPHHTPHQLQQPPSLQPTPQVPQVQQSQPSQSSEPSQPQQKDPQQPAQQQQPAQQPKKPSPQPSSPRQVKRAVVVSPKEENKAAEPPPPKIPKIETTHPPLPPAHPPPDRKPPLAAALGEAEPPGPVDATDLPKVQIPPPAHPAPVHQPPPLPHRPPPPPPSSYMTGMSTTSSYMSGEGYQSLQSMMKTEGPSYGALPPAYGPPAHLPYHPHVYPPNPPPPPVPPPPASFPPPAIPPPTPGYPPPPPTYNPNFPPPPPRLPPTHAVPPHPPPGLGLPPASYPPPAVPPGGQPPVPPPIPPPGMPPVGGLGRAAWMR
Chain of CYP2C19 (P33261 whole entry): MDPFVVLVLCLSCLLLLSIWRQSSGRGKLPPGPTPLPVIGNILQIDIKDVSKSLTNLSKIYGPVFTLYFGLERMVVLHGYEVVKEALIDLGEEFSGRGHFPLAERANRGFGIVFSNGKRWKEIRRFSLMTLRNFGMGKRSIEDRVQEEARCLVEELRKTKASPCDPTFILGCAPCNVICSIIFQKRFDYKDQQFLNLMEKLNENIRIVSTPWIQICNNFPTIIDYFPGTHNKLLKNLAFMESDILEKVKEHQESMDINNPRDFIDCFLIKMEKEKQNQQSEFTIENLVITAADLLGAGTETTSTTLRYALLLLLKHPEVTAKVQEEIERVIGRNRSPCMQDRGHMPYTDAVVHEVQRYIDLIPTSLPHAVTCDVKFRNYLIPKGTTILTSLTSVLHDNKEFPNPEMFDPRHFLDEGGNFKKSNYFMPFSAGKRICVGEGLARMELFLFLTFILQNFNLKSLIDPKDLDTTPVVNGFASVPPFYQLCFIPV
Chain of CYP2C9 (P11712 whole entry): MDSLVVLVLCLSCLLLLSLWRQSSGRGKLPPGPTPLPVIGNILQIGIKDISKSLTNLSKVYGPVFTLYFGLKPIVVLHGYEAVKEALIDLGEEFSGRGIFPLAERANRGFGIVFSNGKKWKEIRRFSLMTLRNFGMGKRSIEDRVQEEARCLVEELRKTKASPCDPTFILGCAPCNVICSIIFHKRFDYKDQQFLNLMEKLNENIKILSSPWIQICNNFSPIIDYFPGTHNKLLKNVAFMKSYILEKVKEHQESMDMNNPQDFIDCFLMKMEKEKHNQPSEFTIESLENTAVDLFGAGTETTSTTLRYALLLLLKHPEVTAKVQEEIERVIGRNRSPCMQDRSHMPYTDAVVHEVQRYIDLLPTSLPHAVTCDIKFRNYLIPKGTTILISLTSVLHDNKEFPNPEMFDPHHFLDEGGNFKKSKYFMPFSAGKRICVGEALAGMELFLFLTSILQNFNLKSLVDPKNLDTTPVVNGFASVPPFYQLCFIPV
Chain of CYP2D6 (P10635 whole entry): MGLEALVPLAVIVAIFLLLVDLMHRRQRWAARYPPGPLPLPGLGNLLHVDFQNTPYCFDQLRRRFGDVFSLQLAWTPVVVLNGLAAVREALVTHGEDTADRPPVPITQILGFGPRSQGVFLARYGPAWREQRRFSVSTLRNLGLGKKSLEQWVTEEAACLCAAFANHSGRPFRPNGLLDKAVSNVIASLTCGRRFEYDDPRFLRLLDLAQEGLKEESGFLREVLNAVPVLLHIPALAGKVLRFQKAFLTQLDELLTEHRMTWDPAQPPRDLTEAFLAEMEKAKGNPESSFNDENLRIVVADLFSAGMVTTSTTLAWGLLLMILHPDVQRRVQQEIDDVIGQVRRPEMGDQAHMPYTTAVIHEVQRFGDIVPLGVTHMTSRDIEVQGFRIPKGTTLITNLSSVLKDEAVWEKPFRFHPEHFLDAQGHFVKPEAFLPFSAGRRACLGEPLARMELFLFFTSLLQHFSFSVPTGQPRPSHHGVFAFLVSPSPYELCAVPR
Chain of CYP3A4 (P08684 whole entry): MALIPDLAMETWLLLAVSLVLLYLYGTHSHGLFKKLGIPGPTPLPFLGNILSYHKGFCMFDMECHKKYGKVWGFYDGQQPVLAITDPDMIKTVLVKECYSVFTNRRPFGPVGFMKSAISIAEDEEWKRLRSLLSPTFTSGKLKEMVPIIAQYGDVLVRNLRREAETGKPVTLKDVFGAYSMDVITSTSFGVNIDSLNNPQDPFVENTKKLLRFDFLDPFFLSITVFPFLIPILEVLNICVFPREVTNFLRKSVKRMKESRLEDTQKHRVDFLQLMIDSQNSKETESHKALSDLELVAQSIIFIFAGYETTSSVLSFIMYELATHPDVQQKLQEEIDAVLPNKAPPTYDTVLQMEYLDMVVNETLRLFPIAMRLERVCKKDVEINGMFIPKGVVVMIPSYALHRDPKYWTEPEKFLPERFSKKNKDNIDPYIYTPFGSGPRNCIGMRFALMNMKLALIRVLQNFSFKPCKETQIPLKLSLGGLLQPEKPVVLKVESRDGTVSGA
Chain of CYP1A2 (P05177 whole entry): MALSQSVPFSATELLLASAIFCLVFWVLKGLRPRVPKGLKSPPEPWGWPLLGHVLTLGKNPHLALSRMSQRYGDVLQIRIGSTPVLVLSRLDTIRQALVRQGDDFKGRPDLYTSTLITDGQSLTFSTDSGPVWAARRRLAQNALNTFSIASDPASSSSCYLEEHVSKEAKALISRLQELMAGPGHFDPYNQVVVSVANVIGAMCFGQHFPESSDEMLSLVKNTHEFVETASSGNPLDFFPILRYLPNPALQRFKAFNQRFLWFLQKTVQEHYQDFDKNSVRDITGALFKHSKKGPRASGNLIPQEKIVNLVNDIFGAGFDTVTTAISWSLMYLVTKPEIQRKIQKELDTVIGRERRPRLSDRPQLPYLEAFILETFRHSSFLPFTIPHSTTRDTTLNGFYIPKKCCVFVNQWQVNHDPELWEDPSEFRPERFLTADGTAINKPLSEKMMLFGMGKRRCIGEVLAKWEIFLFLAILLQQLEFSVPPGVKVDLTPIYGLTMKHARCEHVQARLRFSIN

| Structure (SMILES) | IC50 (CDK12/CyclinK) | GI50 (SK-Br3 cells; [3]) | GI50 (HCC1954 cells; [4]) | also measured |
| --- | --- | --- | --- | --- |
| CCn1cnc2c(NCc3ccc(-c4ccnc(C)c4)nc3)nc(-c3cnc(N)nc3)nc21 [Example 50, 2-(2-aminopyrimidin-5-yl)-9-ethyl-N-((2′-methyl-[2,4′-bipyridin]-5-yl)methyl)-9H-purin-6-amine] | 0.019 µM | – | – | activity at 10 µM (CYP2C19): 75.4%; activity at 10 µM (CYP2D6): 85.7%; activity at 10 µM (CYP3A4): 72.4%; activity at 10 µM (CYP2C9): 82.9%; activity at 10 µM (CYP1A2): 74.9%; Liver microsomal metabolic stability (% remaining amount) Dog [1]: 53.6%; Liver microsomal metabolic stability (% remaining amount) Human [1]: 40.6%; Liver microsomal metabolic stability (% remaining amount) Mouse [1]: 45.0% |
| Cc1cc(-c2ccc(CNc3nc(-c4cccnc4)nc4c3ncn4C(C)C)nc2)ccn1 [Example 5, 9-isopropyl-N-((2′-methyl-[3,4′-bipyridin]-6-yl)methyl)-2-(pyridin-3-yl)-9H-purin-6-amine] | 0.481 µM | – | – | cyclinK degradation (cyclinK): induced the degradation of cyclinK; Pol II CTD (Ser2) phosphorylation [2]: inhibited Pol II CTD (Ser2) phosphorylation in a dose-dependent manner |
| CCn1cnc2c(NCc3ccc(-c4ccnc(C)c4)nc3)nc(-c3ccc(N)nc3)nc21 [Example 49, 2-(6-aminopyridin-3-yl)-9-ethyl-N-((2′-methyl-[2,4′-bipyridin]-5-yl)methyl)-9H-purin-6-amine] | 0.012 µM | 0.133 µM | – | activity at 10 µM (CYP2C19): 76.8%; activity at 10 µM (CYP2D6): 89.6%; activity at 10 µM (CYP3A4): 38.9%; activity at 10 µM (CYP2C9): 73%; activity at 10 µM (CYP1A2): 59.3%; Liver microsomal metabolic stability (% remaining amount) Dog [1]: 45.1%; Liver microsomal metabolic stability (% remaining amount) Human [1]: 32.2%; Liver microsomal metabolic stability (% remaining amount) Mouse [1]: 35.3% |
| CN(C)C/C=C/C(=O)Nc1ccc(C(=O)N2CCC[C@@H](Nc3ncc(Cl)c(-c4c[nH]c5ccccc45)n3)C2)cc1 [THZ531, reference compound] | 0.05 µM | – | 0.214 µM | GI50 (HCC1954 cells; read-out: HCC1954 GI50): 0.214 µM; GI50 (SK-Br3 cells; read-out: SK-Br3 GI50): 0.03 µM |
| Cc1ccc(-c2ccc(CNc3nc(-c4cccnc4)nc4c3ncn4C(C)C)nc2)cn1 [Example 3, 9-isopropyl-N-((6′-methyl-[3,3′-bipyridin]-6-yl)methyl)-2-(pyridin-3-yl)-9H-purin-6-amine] | 1.11 µM | 23.1 µM | 13.6 µM | – |
| CC(C)n1cnc2c(NCc3ccc(-c4cccnc4)cn3)nc(-c3cccnc3)nc21 [Example 2, N-([3,3′-bipyridin]-6-ylmethyl)-9-isopropyl-2-(pyridin-3-yl)-9H-purin-6-amine] | 0.582 µM | 0.866 µM | 0.659 µM | cyclinK degradation (cyclinK): induced the degradation of cyclinK; Pol II CTD (Ser2) phosphorylation [2]: inhibited Pol II CTD (Ser2) phosphorylation in a dose-dependent manner |
| CC(C)n1cnc2c(NCc3ccc(-c4ccncc4)cn3)nc(-c3cccnc3)nc21 [Example 4, N-([3,4′-bipyridin]-6-ylmethyl)-9-isopropyl-2-(pyridin-3-yl)-9H-purin-6-amine] | 0.627 µM | 0.74 µM | 0.888 µM | cyclinK degradation (cyclinK): induced the degradation of cyclinK; Pol II CTD (Ser2) phosphorylation [2]: inhibited Pol II CTD (Ser2) phosphorylation in a dose-dependent manner |
| c1cncc(-c2ccc(CNc3nc(-c4cccnc4)nc4c3ncn4C3CCCC3)cn2)c1 [Example 47, N-([2,3′-bipyridin]-5-ylmethyl)-9-cyclopentyl-2-(pyridin-3-yl)-9H-purin-6-amine] | 0.293 µM | 2.6 µM | 2.14 µM | – |
| CC(C)n1cnc2c(NCc3ccc(-c4ccccn4)cn3)nc(-c3cccnc3)nc21 [Example 1, N-([2,3′-bipyridin]-6′-ylmethyl)-9-isopropyl-2-(pyridin-3-yl)-9H-purin-6-amine] | 0.433 µM | – | 0.105 µM | cyclinK degradation (cyclinK): induced the degradation of cyclinK; Pol II CTD (Ser2) phosphorylation [2]: inhibited Pol II CTD (Ser2) phosphorylation in a dose-dependent manner |
| CC(C)n1cnc2c(NCc3ccc(-c4cccnc4)nc3)nc(-n3cc(CCO)nn3)nc21 [Example 42, 2-(1-(6-(([2,3′-bipyridin]-5-ylmethyl)amino)-9-isopropyl-9H-purin-2-yl)-1H-1,2,3-triazol-4-yl)ethan-1-ol] | 0.539 µM | 8.29 µM | 6.5 µM | – |

Now from value to compound, other results behind:

| IC50 (CDK12/CyclinK) | GI50 (SK-Br3 cells; [3]) | GI50 (HCC1954 cells; [4]) | Structure (SMILES) | also measured |
| --- | --- | --- | --- | --- |
| 0.053 µM | 0.261 µM | 0.173 µM | CC(C)n1cnc2c(NCc3ccc(-c4cccnc4)nc3)nc(-c3ccc(NCCO)nc3)nc21 [Example 35, 2-((5-(6-(([2,3′-bipyridin]-5-ylmethyl)amino)-9-isopropyl-9H-purin-2-yl)pyridin-2-yl)amino)ethan-1-ol] | – |
| 0.09 µM | 1.25 µM | 0.937 µM | Cc1ccc(-c2nc(NCc3ccc(-c4cccnc4)nc3)c3ncn(C(C)C)c3n2)cn1 [Example 17, N-([2,3′-bipyridin]-5-ylmethyl)-9-isopropyl-2-(6-methylpyridin-3-yl)-9H-purin-6-amine] | – |
| 0.484 µM | 3.7 µM | 3.14 µM | CC(C)n1cnc2c(NCc3ccc(-c4cccnc4)nc3)nc(-c3ccc(C(N)=O)cc3)nc21 [Example 10, 4-(6-(([2,3′-bipyridin]-5-ylmethyl)amino)-9-isopropyl-9H-purin-2-yl)benzamide] | – |
| 0.221 µM | 0.416 µM | 0.248 µM | CC(C)n1cnc2c(NCc3ccc(-c4cccnc4)nc3)nc(-c3cccnc3)nc21 [Example 6, N-([2,3′-bipyridin]-5-ylmethyl)-9-isopropyl-2-(pyridin-3-yl)-9H-purin-6-amine] | – |
| 0.619 µM | 2.58 µM | 2.62 µM | CC(C)n1cnc2c(NCc3ccc(-c4cccnc4)nc3)nc(-c3ccccc3N)nc21 [Example 25, N-([2,3′-bipyridin]-5-ylmethyl)-2-(2-aminophenyl)-9-isopropyl-9H-purin-6-amine] | – |
| 0.799 µM | 2.31 µM | 1.56 µM | CC(C)n1cnc2c(NCc3ccc(-c4cccnc4)nc3)nc(-c3ccccc3NCCO)nc21 [Example 31, 2-((2-(6-(([2,3′-bipyridin]-5-ylmethyl)amino)-9-isopropyl-9H-purin-2-yl)phenyl)amino)ethan-1-ol] | – |
| 0.499 µM | 1.09 µM | 0.906 µM | CC(C)n1cnc2c(NCc3ccc(-c4cccnc4)nc3)nc(-c3ccc(NCCCO)cc3)nc21 [Example 34, 3-((4-(6-(([2,3′-bipyridin]-5-ylmethyl)amino)-9-isopropyl-9H-purin-2-yl)phenyl)amino)propan-1-ol] | – |
| 0.623 µM | 1.68 µM | 1.12 µM | CC(C)n1cnc2c(NCc3ccc(-c4cccnc4)nc3)nc(-c3ccccc3)nc21 [Example 8, N-([2,3′-bipyridin]-5-ylmethyl)-9-isopropyl-2-phenyl-9H-purin-6-amine] | – |
| 0.486 µM | 3.71 µM | 4.23 µM | CC(C)n1cnc2c(NCc3ccc(-c4cccnc4)nc3)nc(-c3cnc4ccccc4c3)nc21 [Example 16, N-([2,3′-bipyridin]-5-ylmethyl)-9-isopropyl-2-(quinolin-3-yl)-9H-purin-6-amine] | – |
| 0.504 µM | 1.6 µM | 1.12 µM | CC(C)n1cnc2c(NCc3ccc(-c4cccnc4)nc3)nc(-c3cccc(C(N)=O)c3)nc21 [Example 9, 3-(6-(([2,3′-bipyridin]-5-ylmethyl)amino)-9-isopropyl-9H-purin-2-yl)benzamide] | – |
| 0.153 µM | 0.801 µM | 0.5 µM | CC(C)n1cnc2c(NCc3ccc(-c4ccncc4)nc3)nc(-c3cccnc3)nc21 [Example 7, N-([2,4′-bipyridin]-5-ylmethyl)-9-isopropyl-2-(pyridin-3-yl)-9H-purin-6-amine] | – |
| 0.104 µM | 2.6 µM | 1.88 µM | CC(C)n1cnc2c(NCc3ccc(-c4cccnc4)nc3)nc(-c3ccc4[nH]ncc4c3)nc21 [Example 14, N-([2,3′-bipyridin]-5-ylmethyl)-2-(1H-indazol-5-yl)-9-isopropyl-9H-purin-6-amine] | – |
| 3.01 µM | 11.3 µM | 6.09 µM | CC(C)n1cnc2c(NCc3ccc(-c4cccnc4)nc3)nc(-c3ccccc3NCCCO)nc21 [Example 32, 3-((2-(6-(([2,3′-bipyridin]-5-ylmethyl)amino)-9-isopropyl-9H-purin-2-yl)phenyl)amino)propan-1-ol] | – |
